Experimental data taken from patent US11584709B2, “Multitarget drug for treating diseases in mammals” (“PHARMENTERPRISES EURASIA” LIMITED LIABILITY COMPANY, priority 2017, dated 2023).

Tests used:
[1] = molecular target: T1, human recombinant cathepsin S (Homo sapiens, UniProt P25774); assay: Effect on the enzymatic activity of cathepsin S; assay type: biochemical; conditions: inhibitor; preincubated 15 minutes at 37° C.; substrate Z-Phe-Arg-AMC (6 μM)
T1 construct: host or cells: E. coli
Experimental: Compound 1 was dissolved in DMSO to a concentration of 100 mM; then a stock solution was serially diluted with DMSO. The maximum starting concentration of the substance is 100 μM. The effect was determined at 5 concentrations of the tested compounds, each concentration was studied twice. A human recombinant cathepsin S, expressed in E. coli was used in the experiment. Test compounds were preincubated for 15 minutes at 37° C. with an enzyme whose activity was determined by the rate of transformation of the substrate Z-Phe-Arg-AMC (6 μM) by the fluorescence spectroscopy (Protein Sci. 1996 April; 5(4):789-91).

[2] = molecular target: T2, cannabinoid receptor type 1 (CB1R) (Homo sapiens, UniProt P21554); assay: Activity of cannabinoid receptor type 1, CHO cells expressing CB1R; assay type: cell-based; conditions: agonist, control CP55940 (30 nM)
T2 construct: expressed in transfected cells; host or cells: CHO cells
T2 sequence (P21554 whole entry): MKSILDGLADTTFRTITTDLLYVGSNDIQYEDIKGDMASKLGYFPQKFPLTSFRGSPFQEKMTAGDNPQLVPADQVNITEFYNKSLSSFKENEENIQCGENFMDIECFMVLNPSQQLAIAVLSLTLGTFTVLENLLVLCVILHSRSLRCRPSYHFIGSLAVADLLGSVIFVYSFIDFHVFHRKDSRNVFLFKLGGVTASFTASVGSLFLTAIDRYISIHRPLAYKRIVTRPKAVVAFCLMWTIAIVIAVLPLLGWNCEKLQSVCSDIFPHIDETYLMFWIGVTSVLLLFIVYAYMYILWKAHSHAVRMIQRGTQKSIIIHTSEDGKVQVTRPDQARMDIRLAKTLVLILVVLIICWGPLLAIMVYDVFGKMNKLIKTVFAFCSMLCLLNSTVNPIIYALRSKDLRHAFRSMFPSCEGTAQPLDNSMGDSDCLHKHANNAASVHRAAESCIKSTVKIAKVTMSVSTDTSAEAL
Experimental: Compound 1 was dissolved in DMSO to a concentration of 100 mM; then the stock solution was serially diluted with DMSO. The maximum starting concentration of the substance is 100 μM. The effect was determined at 5 concentrations of the tested compounds, each concentration was studied twice. CHO cells expressing CB1R were used in the experiment, these cells were incubated with the test compound. CP55940 (30 nM) compound was used as the control. The activity of receptors was determined by the intracellular calcium concentration by the homogeneous time resolved fluorescence spectroscopy (Mol Pharmacol. 1995 September; 48(3):443-50).

[3] = molecular target: T3, prokineticin receptor type 2 (PK2) (Homo sapiens, UniProt Q8NFJ6); assay: Activity of prokineticin receptors type 2 (PK2), intracellular calcium, HEK-293 cells; assay type: cell-based; conditions: antagonist, PK2 agonist (2 nM)
T3 construct: expressed in transfected cells; host or cells: HEK-293 cells
T3 sequence (Q8NFJ6 whole entry): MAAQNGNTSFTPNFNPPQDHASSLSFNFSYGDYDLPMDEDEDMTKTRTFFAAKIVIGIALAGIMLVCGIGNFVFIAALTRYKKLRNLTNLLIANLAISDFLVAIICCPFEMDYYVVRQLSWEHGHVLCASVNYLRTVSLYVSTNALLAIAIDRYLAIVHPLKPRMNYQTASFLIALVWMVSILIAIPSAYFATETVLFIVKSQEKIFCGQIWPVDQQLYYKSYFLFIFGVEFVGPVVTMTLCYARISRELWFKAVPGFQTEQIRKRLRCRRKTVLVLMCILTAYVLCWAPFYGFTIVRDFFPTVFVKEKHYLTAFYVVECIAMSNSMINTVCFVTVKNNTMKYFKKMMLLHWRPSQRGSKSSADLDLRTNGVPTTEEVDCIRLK
Experimental: Compound 1 was dissolved in DMSO to a concentration of 100 mM; then a stock solution was serially diluted with DMSO. The maximum starting concentration of the substance is 100 μM. The effect was determined at 5 concentrations of the tested compounds, each concentration was studied twice. HEK-293 cells expressing prokinetycin receptors PK2 were used in the experiment, these cells, after preincubation with a PK2 agonist (2 nM), were incubated with the test compound. The activity of receptors was determined according to the intracellular calcium concentration by the fluorescence spectroscopy (Mol Pharmacol. 2005 June; 67(6):2070-6).

[4] = molecular target: T4, serotonin receptors 5-HT2B (Homo sapiens, UniProt P41595); assay: Activity of serotonin receptors 5-HT2B, CHO cells; assay type: cell-based; conditions: antagonist, serotonin agonist (30 nM)
T4 construct: expressed in transfected cells; host or cells: CHO cells
T4 sequence (P41595 whole entry): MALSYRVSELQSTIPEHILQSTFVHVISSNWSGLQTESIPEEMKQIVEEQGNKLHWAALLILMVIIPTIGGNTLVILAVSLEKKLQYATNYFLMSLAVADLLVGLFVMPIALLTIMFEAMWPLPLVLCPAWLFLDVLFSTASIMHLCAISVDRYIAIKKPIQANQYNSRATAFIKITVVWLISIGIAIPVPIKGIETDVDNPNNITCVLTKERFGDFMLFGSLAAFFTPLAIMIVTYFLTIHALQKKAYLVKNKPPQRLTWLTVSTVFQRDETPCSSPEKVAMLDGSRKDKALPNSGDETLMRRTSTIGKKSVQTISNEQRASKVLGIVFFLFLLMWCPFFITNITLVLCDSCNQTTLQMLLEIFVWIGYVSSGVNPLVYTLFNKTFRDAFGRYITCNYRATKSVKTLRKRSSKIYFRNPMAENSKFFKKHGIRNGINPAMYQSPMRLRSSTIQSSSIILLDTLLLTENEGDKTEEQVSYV
Experimental: Compound 1 was dissolved in DMSO to a concentration of 100 mM; then a stock solution was serially diluted with DMSO. The maximum starting concentration of the substance is 100 μM. The effect was determined at 5 concentrations of the tested compounds, each concentration was studied twice. CHO cells expressing serotonin receptors 5-HT2B were used in the experiment, these cells, after preincubation with a serotonin agonist (30 nM), were incubated with the test compound. The activity of receptors was determined according to the intracellular calcium concentration of phosphatidylinositol by the homogeneous time resolved fluorescence spectroscopy (Br J Pharmacol. 1999 September; 128(1):13-20).

indomethacin colitis = assay: Model of colitis induced by indomethacin; assay type: in vivo, male Wistar rats; conditions: 100 mg/kg; day 4; M ± m, n = 10
Experimental: The study was performed on male Wistar rats, which were subcutaneously injected with an indomethacin solution in a dose of 9 mg/kg for two days running to induce colitis. The injection solution was prepared as follows: first, indomethacin was dissolved in 100% ethanol, then it was diluted in 5% NaHCO3 solution. On the 4th day after euthanasia, the stomach and intestine were removed from the animals in the CO2 chamber, then the caecum was excised, 10 cm from the ileum and large intestine was cut off, and 5 cm—from the caecum, to assess gross lesions (J Ethnopharmacol. 2004 February; 90(2-3): 195-204).

[5] = Stability in blood plasma, human; assay type: in vitro ADME; conditions: 1 μM, 37° C.
Experimental: (§1) Compound 1 at a concentration of 1 μM was incubated for 24 hours in the blood plasma of human and various animal species (rats, mice, guinea pigs, rabbits, horses, dogs, bull, pygmy hogs) at 37° C. Aliquots were taken at time points of 0, 0.25, 1, 2, 4, 8 and 24 hours. In the case of blood plasma of rabbits and monkeys, Compound 1 was incubated for 4 hours, and aliquots were taken at time points 0, 0.25, 1, 4. After the protein precipitation with acetonitrile, samples were analyzed by HPLC-MS/MS to determine the concentration of Compound 1. Verapamil was used as a stable control.

[6] = Stability in blood plasma, dog; assay type: in vitro ADME; conditions: 1 μM, 37° C.
Experimental: as §1

[7] = Stability in blood plasma, mouse; assay type: in vitro ADME; conditions: for Content, % from the initial, Mean (n = 2): mouse blood plasma, 1 μM, 37° C.
Experimental: as §1

[8] = Stability in blood plasma, rabbit; assay type: in vitro ADME; conditions: for Content, % from the initial, Mean (n = 2): rabbit blood plasma, 1 μM, 37° C.
Experimental: as §1

[9] = Pharmacokinetics in blood plasma after oral administration; assay type: in vivo; conditions: rats, 3 mg/kg, 24 hours sampling, HPLC-MS/MS, limit of quantitation 1 ng/ml
Experimental: To confirm low systemic availability of Compound 1, the study pharmacokinetics and bioavailability of Compound 1 after oral administration to rats in a dose of 3 mg/kg was conducted. Sampling of blood from animals was performed at specified time points for 24 hours after the drug administration. The content of Compound 1 in plasma samples was analyzed by HPLC-MS/MS, the limit of quantitation was 1 ng/ml.

T1 sequence (P25774 115-331): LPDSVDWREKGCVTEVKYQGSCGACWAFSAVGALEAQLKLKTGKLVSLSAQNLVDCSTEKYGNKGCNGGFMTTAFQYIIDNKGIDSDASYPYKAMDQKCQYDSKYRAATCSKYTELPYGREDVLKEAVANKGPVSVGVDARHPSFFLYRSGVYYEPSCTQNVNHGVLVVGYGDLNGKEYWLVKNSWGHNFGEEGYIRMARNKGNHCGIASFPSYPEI

**Q.** Which results are given for `O=C(Cc1ccc(O)cc1)N[C@@H](Cc1ccccc1)C(=O)OCc1ccccc1` [Compound 1, benzyl (2S)-2-[2-(4-hydroxyphenyl)acetamido]-3-phenylpropanoate]?
**A.** IC50 [1]: 6.7 µM; IC50 [2]: 3.3 µM; IC50 [3]: 5.4 µM; IC50 [4]: 8.9 µM; Macroscopic assessment of the lesion, Caecum (indomethacin colitis): 0.4 ± 0.2 points; Macroscopic assessment of the lesion, Ileum (indomethacin colitis): 0.6 ± 0.3& points; Macroscopic assessment of the lesion, Large intestine (indomethacin colitis): 0.2 ± 0.1& points; Macroscopic assessment of the lesion, Overall assessment (indomethacin colitis): 1.2 ± 0.4*& points; Content, % from the initial, Mean (n = 2) ([5]; 0 hour): 100%; Content, % from the initial, Mean (n = 2) ([5]; 0.25 hour): 85.4%; Content, % from the initial, Mean (n = 2) ([5]; 1 hour): 70.3%; Content, % from the initial, Mean (n = 2) ([5]; 2 hour): 50.1%; Content, % from the initial, Mean (n = 2) ([5]; 4 hour): 32.1%; Content, % from the initial, Mean (n = 2) ([5]; 8 hour): 16.4%; Content, % from the initial, Mean (n = 2) ([5]; 24 hour): 0.00%; Content, % from the initial, Mean (n = 2) ([6]; 0 hour): 100%; Content, % from the initial, Mean (n = 2) ([6]; 0.25 hour): 110%; Content, % from the initial, Mean (n = 2) ([6]; 1 hour): 79.1%; Content, % from the initial, Mean (n = 2) ([6]; 2 hour): 80.6%; Content, % from the initial, Mean (n = 2) ([6]; 4 hour): 67.2%; Content, % from the initial, Mean (n = 2) ([6]; 8 hour): 54.1%; Content, % from the initial, Mean (n = 2) ([6]; 24 hour): 33.8%; hydrolysis in the blood plasma (in words) ([7]; blood plasma of mice, after 15 minutes): almost completely hydrolyzed; Content, % from the initial, Mean (n = 2) ([7]; 0 hour): 100%; Content, % from the initial, Mean (n = 2) ([7]; 0.25 hour): 0.00%; Content, % from the initial, Mean (n = 2) ([7]; 1 hour): 0.00%; Content, % from the initial, Mean (n = 2) ([7]; 2 hour): 0.00%; Content, % from the initial, Mean (n = 2) ([7]; 4 hour): 0.00%; Content, % from the initial, Mean (n = 2) ([7]; 8 hour): 0.00%; Content, % from the initial, Mean (n = 2) ([7]; 24 hour): 0.00%; hydrolysis in the blood plasma (in words) ([8]; blood plasma of rabbits, after 15 minutes): almost completely hydrolyzed; Content, % from the initial, Mean (n = 2) ([8]; 0 hour): 100%; Content, % from the initial, Mean (n = 2) ([8]; 0.25 hour): 0.00%; Content, % from the initial, Mean (n = 2) ([8]; 1 hour): 0.00%; Content, % from the initial, Mean (n = 2) ([8]; 4 hour): 0.00%; content in blood plasma after oral administration [9]: not detected
